The source of these data is patent US20100137275A1 (IPSEN PHARMA S.A.S., priority 2007, published 2010).

The target of data set [1] is T1, purified recombinant Cdc25-C enzyme (MBP-Cdc25C protein) (Homo sapiens, UniProt P30307).
T1 construct: made in house
T1 sequence (P30307 1-473): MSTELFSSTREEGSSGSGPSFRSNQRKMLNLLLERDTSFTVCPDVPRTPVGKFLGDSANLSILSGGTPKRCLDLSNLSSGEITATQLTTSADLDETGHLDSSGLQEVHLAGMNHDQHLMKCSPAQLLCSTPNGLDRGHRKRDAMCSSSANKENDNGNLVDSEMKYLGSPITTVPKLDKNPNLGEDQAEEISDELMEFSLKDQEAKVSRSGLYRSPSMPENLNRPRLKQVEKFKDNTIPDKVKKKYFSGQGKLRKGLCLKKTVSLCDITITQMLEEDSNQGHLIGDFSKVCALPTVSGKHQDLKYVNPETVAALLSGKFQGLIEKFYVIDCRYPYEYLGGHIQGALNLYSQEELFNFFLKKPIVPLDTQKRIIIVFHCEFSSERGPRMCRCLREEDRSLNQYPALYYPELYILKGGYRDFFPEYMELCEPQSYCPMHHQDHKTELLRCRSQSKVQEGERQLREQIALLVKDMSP
The data set can be described thus: Phosphatase activity of the purified recombinant Cdc25C enzyme (OMFP dephosphorylation, fluorescence). The class given is biochemical. As to conditions: OMFP 500 μM, 4 hours at 30° C. How it is done:
The phosphatase activity of the MBP-Cdc25C protein is evaluated through its dephosphorylation of 3-O-methylfluorescein-phosphate (OMFP) to form 3-O-methylfluorescein (OMF), determining the fluorescence of the reaction product at 475 nm. This assay can be used to identify inhibitors of the recombinant Cdc25 enzyme. The preparation of the MBP-Cdc25C fusion protein is described in patent application PCT WO 01/44467.
The reaction is performed in 384-well plates in a final volume of 50 μl. The MBP-Cdc25C protein (prepared as described hereinabove) is stored in the following elution buffer: 20 mM Tris-HCl pH 7.4; 250 mM NaCl; 1 mM EDTA; 1 mM dithiothreitol (DTT); 10 mM maltose. It is diluted to a concentration of 60 μM in the following reaction buffer: 50 mM Tris-HCl pH 8.2; 50 mM NaCl; 1 mM DTT; 20% glycerol. The background noise is determined using with the buffer without addition of the enzyme. The products are tested at decreasing concentrations from 40 μM. The reaction is initiated by the addition of a solution OMFP to a final concentration of 500 μM (prepared immediately before use from a 12.5 mM stock solution in 100% DMSO (Sigma #M2629)). After 4 hours at 30° C. in a disposable 384-well plate, the fluorescence measured at OD 475 nm is read on a Victor^2 plate reader (EGG-Wallac). The concentration that produces 50% inhibition of the enzyme reaction is calculated from three independent experiments. Only the values that fall within the linear part of the sigmoid curve are used for the linear regression analysis.

In general, IC50 refers to the concentration needed to halve the response being measured. A word on the melting point: it is the temperature, or range, at which the solid turns liquid. Compound `CN(CCNC(=S)Nc1c(F)c(F)c(F)c(F)c1F)CCNc1cc(N2CCCC2)nc(N2CCCC2)n1` [Example 34, N-{2-[{2-[(2,6-dipyrrolidin-1-ylpyrimidin-4-yl)amino]ethyl}(methyl)amino]ethyl}-N′-(pentafluorophenyl)thiourea] had a melting point of 92 to 94 °C. For the same compound, the IC50 in data set [1] was ≤ 5 µM.
Take `CN(CCNC(=S)NCC1CCCO1)CCNc1cc(N2CCCC2)nc(N2CCCC2)n1` (stereo not shown) [Example 31, N-{2-[{2-[(2,6-dipyrrolidin-1-ylpyrimidin-4-yl)amino]ethyl}(methyl)amino]ethyl}-N′-(tetrahydrofuran-2-ylmethyl)thiourea]: the melting point was 120 to 122 °C. In data set [1], the IC50 is ≤ 5 µM.
`CN(CCNC(=S)Nc1ccc(Cl)c(C(F)(F)F)c1)CCNc1cc(N2CCCC2)nc(N2CCCC2)n1` [Example 54, N-[4-chloro-3-(trifluoromethyl)phenyl]-N′-{2-[{2-[(2,6-dipyrrolidin-1-ylpyrimidin-4-yl)amino]ethyl}(methyl)amino]ethyl}thiourea] showed a melting point of 117 to 119 °C. Besides, in data set [1], the 50% inhibitory concentration (IC50) was ≤ 5 µM.
On the same counts, the results for `CN(CCN)CCNc1cc(N2CCCC2)nc(N2CCCC2)n1` [Example 1, N-{2-[(2,6-dipyrrolidin-1-ylpyrimidin-4-yl)amino]ethyl}-N-methylethane-1,2-diamine] are 67 to 69 °C and ≤ 5 µM.
In the same order, the values of `Cc1noc(C)c1NC(=O)NCCN(C)CCNc1cc(N2CCCC2)nc(N2CCCC2)n1` [Example 13, N-(3,5-dimethylisoxazol-4-yl)-N′-{2-[{2-[(2,6-dipyrrolidin-1-ylpyrimidin-4-yl)amino]ethyl}(methyl)amino]ethyl}urea] are 95 to 97 °C and ≤ 1 µM.
`CN(CCNC(=O)NC(C)(C)C)CCNc1cc(N2CCCC2)nc(N2CCCC2)n1` [Example 9, N-(tert-butyl)-N′-{2-[{2-[(2,6-dipyrrolidin-1-ylpyrimidin-4-yl)amino]ethyl}(methyl)amino]ethyl}urea] came in with a melting point of 107 to 109 °C. Also, the half-maximal inhibitory concentration (IC50) in data set [1] was ≤ 5 µM.
As for `CN(CCNC(=S)Nc1cc(F)cc(F)c1)CCNc1cc(N2CCCC2)nc(N2CCCC2)n1` [Example 41, N-(3,5-difluorophenyl)-N′-{2-[{2-[(2,6-dipyrrolidin-1-ylpyrimidin-4-yl)amino]ethyl}(methyl)amino]ethyl}thiourea], the melting point is 124 to 126 °C. Moreover, the IC50 in data set [1] is ≤ 5 µM.
`CN(CCNC(=O)NCc1ccccc1)CCNc1cc(N2CCCC2)nc(N2CCCC2)n1` [Example 8, N-benzyl-N′-{2-[{2-[(2,6-dipyrrolidin-1-ylpyrimidin-4-yl)amino]ethyl}(methyl)amino]ethyl}urea] registered a melting point of 87 to 89 °C. Besides, the IC50 in data set [1] is ≤ 5 µM.
In turn, `CN(CCNC(=S)Nc1ccc(N2CCOCC2)nc1)CCNc1cc(N2CCCC2)nc(N2CCCC2)n1` [Example 32, N-{2-[{2-[(2,6-dipyrrolidin-1-ylpyrimidin-4-yl)amino]ethyl}(methyl)amino]ethyl}-N′-(6-morpholin-4-ylpyridin-3-yl)thiourea] displayed a melting point of 116 to 118 °C. The IC50 in data set [1] was ≤ 5 µM.
For `CN(CCNC(=S)Nc1ccc([N+](=O)[O-])cc1)CCNc1cc(N2CCCC2)nc(N2CCCC2)n1` [Example 43, N-{2-[{2-[(2,6-dipyrrolidin-1-ylpyrimidin-4-yl)amino]ethyl}(methyl)amino]ethyl}-N′-(4-nitrophenyl)thiourea], the melting point was in the range of 146 to 148 °C. In addition, the IC50 in data set [1] is ≤ 1 µM.
As to `CN(CCNC(=S)Nc1ccc(C#N)cc1)CCNc1cc(N2CCCC2)nc(N2CCCC2)n1` [Example 77, N-(4-cyanophenyl)-N′-{2-[{2-[(2,6-dipyrrolidin-1-ylpyrimidin-4-yl)amino]ethyl}(methyl)amino]ethyl}thiourea], the melting point was in the range of 107 to 109 °C. Also, the half-maximal inhibitory concentration (IC50) in data set [1] is ≤ 1 µM.
Regarding `CN(CCNC(=S)Nc1cccc([N+](=O)[O-])c1)CCNc1cc(N2CCCC2)nc(N2CCCC2)n1` [Example 49, N-{2-[{2-[(2,6-dipyrrolidin-1-ylpyrimidin-4-yl)amino]ethyl}(methyl)amino]ethyl}-N′-(3-nitrophenyl)thiourea], the melting point lay within 125 to 127 °C. Besides, in data set [1], the IC50 is ≤ 1 µM.
The compound `CN(CCNC(=O)NC1CCCC1)CCNc1cc(N2CCCC2)nc(N2CCCC2)n1` [Example 12, N-cyclopentyl-N′-{2-[{2-[(2,6-dipyrrolidin-1-ylpyrimidin-4-yl)amino]ethyl}(methyl)amino]ethyl}urea] showed a melting point of 119 to 121 °C. The IC50 in data set [1] was ≤ 5 µM.
As to `CN(CCNC(=O)NCc1ccco1)CCNc1cc(N2CCCC2)nc(N2CCCC2)n1` [Example 14, N-{2-[{2-[(2,6-dipyrrolidin-1-ylpyrimidin-4-yl)amino]ethyl}(methyl)amino]ethyl}-N′-(2-furylmethyl)urea], the melting point was in the range of 103 to 105 °C. The half-inhibitory concentration (IC50) in data set [1] is ≤ 1 µM.
`CN(CCNC(=O)c1ccc(C(=O)c2ccccc2)cc1)CCNc1cc(N2CCCC2)nc(N2CCCC2)n1` [Example 83, 4-benzoyl-N-{2-[{2-[(2,6-dipyrrolidin-1-ylpyrimidin-4-yl)amino]ethyl}(methyl)amino]ethyl}benzamide] registered a melting point of 119 to 121 °C. In addition, the IC50 in data set [1] is ≤ 5 µM.
In turn, `CN(CCNC(=S)Nc1ccc(Sc2ncc(C(F)(F)F)cc2Cl)cc1)CCNc1cc(N2CCCC2)nc(N2CCCC2)n1` [Example 52, N-(4-{[3-chloro-5-(trifluoromethyl)pyridin-2-yl]thio}phenyl)-N′-{2-[{2-[(2,6-dipyrrolidin-1-ylpyrimidin-4-yl)amino]ethyl}(methyl)amino]ethyl}thiourea] had a melting point of 97 to 99 °C. Also, the half-inhibitory concentration (IC50) in data set [1] is ≤ 1 µM.
The compound `O=C(NCCOCCNc1cc(N2CCCC2)nc(N2CCCC2)n1)Nc1ccc(Cl)c(C(F)(F)F)c1` [Example 20, N-[4-chloro-3-(trifluoromethyl)phenyl]-N′-(2-{2-[(2,6-dipyrrolidin-1-ylpyrimidin-4-yl)amino]ethoxy}ethyl)urea] registered a melting point of 79 to 81 °C. In addition, the IC50 in data set [1] is ≤ 5 µM.
As to `CN(CCNC(=S)Nc1cccc(F)c1)CCNc1cc(N2CCCC2)nc(N2CCCC2)n1` [Example 39, N-{2-[{2-[(2,6-dipyrrolidin-1-ylpyrimidin-4-yl)amino]ethyl}(methyl)amino]ethyl}-N′-(3-fluorophenyl)thiourea], the melting point was 118 to 120 °C. Besides, the half-maximal inhibitory concentration (IC50) in data set [1] is ≤ 1 µM.
In turn, `CN(CCNC(=S)Nc1ccc(S(N)(=O)=O)cc1)CCNc1cc(N2CCCC2)nc(N2CCCC2)n1` [Example 61, 4-{[({2-[{2-[(2,6-dipyrrolidin-1-ylpyrimidin-4-yl)amino]ethyl}(methyl)amino]ethyl}amino)carbonothioyl]amino}benzenesulfonamide] gave a melting point of 140 °C. Besides, the IC50 in data set [1] is ≤ 1 µM.
`CN(CCNC(=S)Nc1ccc(Cl)cc1)CCNc1cc(N2CCCC2)nc(N2CCCC2)n1` [Example 22, N-(4-chlorophenyl)-N′-{2-[{2-[(2,6-dipyrrolidin-1-ylpyrimidin-4-yl)amino]ethyl}(methyl)amino]ethyl}thiourea] came in with a melting point of 127 to 129 °C. For the same compound, the IC50 in data set [1] is ≤ 1 µM.
